Experimental data from patent publication US8207344B2, “GPR119 agonists” (Eli Lilly and Company, priority 2009, dated 2012).
Values belong to the compound of their own block, whether it stands above or below them.

Tests used:
human GPR119 = target: T1, human GPR119 (Homo sapiens, UniProt Q8TDV5); assay: Human GPR119 activity assay (cAMP HTRF in 293 T-REx cells expressing hGPR119); assay type: cell-based; details: 293 T-REx cells expressing hGPR119, cAMP HTRF, 1 h incubation; read-out: EC50 (agonist concentration that gives 50% activation of the hGPR119 mediated cAMP increase)
T1 construct: expressed in transfected cells
T1 sequence (Q8TDV5 1-335): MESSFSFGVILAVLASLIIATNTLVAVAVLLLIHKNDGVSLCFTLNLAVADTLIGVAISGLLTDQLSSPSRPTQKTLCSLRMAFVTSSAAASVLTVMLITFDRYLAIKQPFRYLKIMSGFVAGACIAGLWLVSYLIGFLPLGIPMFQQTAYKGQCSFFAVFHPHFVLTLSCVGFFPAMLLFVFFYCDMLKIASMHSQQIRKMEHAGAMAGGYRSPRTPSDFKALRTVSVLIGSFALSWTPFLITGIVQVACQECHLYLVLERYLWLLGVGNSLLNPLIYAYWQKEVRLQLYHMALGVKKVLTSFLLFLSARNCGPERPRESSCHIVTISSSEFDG
Description: A stable cell line expressing human GPR119 off an inducible promoter is generated in 293 T-REx™ cells (Invitrogen). T-REx™ (Tetracycline-Regulated Expression) cell line stably expresses the tetracycline repressor protein and, therefore, allow for inducible expression of the gene of interest (GPR119) with doxycycline. Agonists to the human GPR119 receptor are characterized by measuring increases in the cAMP levels in 293 T-REx™ cells expressing hGPR119. 10,000 cells/well are seeded into a 96-well plate and cultured for 24 h in DMEM supplemented with 10% fetal bovine serum, 15 μg/mL Blasticidin and 200 μg/mL Hygromycin B. Next day, cells are stimulated with 1 ng/mL Doxycycline in DMEM with no further addition of Hygromycin B and Blasticidin. cAMP assay is performed after 18 h incubation with doxycycline. cAMP is determined using the cAMP HiRange HTRF assay (Cisbo International). Cells are washed with PBS and pre-incubated for 15 min with PBS supplemented with 2 mM glucose, 0.25 mM IBMX and 0.1% BSA. Test compounds diluted in the pre-incubation buffer are added and cells are further incubated at room temperature for 1 h. Incubation is stopped by addition of HTRF reagents diluted in the lysis buffer, followed by incubation for 1 h and measurements of fluorescence at […]. The potency of the agonists is determined as the agonist concentration that gives 50% activation of the hGPR119 mediated cAMP increase (EC50).

total GIP = assay: Mouse Gastric Inhibitory Polypeptide (GIP) assay; assay type: in vivo; details: male C57BL/6 mice, 0.5-6 h
Description: Male C57BL/6 mice (8-10 weeks of age, n=20/dose level, n=5/time point) are fasted overnight (16 hr), weighed the following morning, and then orally dosed with vehicle (1% HEC) or various doses of test article at 5 mL/kg. Animals are euthanized by CO2 asphyxiation for 1 minute, and then blood is collected by cardiac puncture at various times (0.5, 1.5, 3, and 6 h post compound dose) into EDTA plasma tubes containing 10 μL/mL DPP4 inhibitor (Millipore, DPP4-010) and 1.1×10^5 KIU/mL aprotinin. Blood samples are kept on ice until plasma is separated by centrifugation at 3000×g for 5 min. Resulting plasma samples are placed into 96-well plates and stored at −20° C. until analyzed. Measurements of total GIP (measured by Millipore kit EZRMGIP-55K) are performed for each time-point. For each treatment group, the AUC for GIP is determined by applying the trapezoid rule to the timepoint-specific average GIP levels. Potencies were estimated using piecewise linear interpolation across the collection of calculated GIP AUCs above vehicle from a dose response study. Compound potency is defined as the dose and/or concentration of compound that yielded an increase of 350 pg*hr/mL above the vehicle group GIP AUC over the timecourse of the experiment.

GLUTag cells = assay: Glucagon-like peptide 1 secretion in GLUTag cells; assay type: cell-based, murine; details: Mus musculus, 2 h at 37 C, 5 mM glucose, read-out: EC50 (agonist concentration that gives 50% increase in GLP-1)
Description: Effects of GPR119 agonists on glucagon-like peptide 1 (GLP-1) secretion are determined in vitro in GLUTag cells. GLUTag cells are an immortalized murine intestinal enteroendocrine cell line that express the preproglucagon gene and secrete GLP-1 in a regulated manner (Brubaker P L, Schloos J, Drucker D J. Regulation of glucagon-like peptide-1 synthesis and secretion in the GLUTag enteroendocrine cell line. Endocrinology. 1998 139:4108-14). To measure GLP-1 secretion, 15,000 cells/well are seeded in 96-well-plate and incubated for 3 days in DMEM supplemented with 10% FBS and 1% Glutamine. On the day of the experiment, cells are washed twice with the incubation buffer, EBSS supplemented with 5 mM glucose and 0.1% BSA. 150 μL of the incubation buffer containing test compounds is added to each well and cells are incubated at 37° C. for 2 h. After incubation, the supernatant is collected and filtered using 96-well-filter-plates. GLP-1 content in the filtrate is determined with the Mouse/Rat Total GLP-1 Assay (Meso Scale Discovery). The potency of the GPR119 agonists to stimulate GLP-1 secretion is determined as the agonist concentration that gives 50% increase in GLP-1 (EC50).

[1] = Oral bioavailability in Beagle dogs; assay type: in vivo; details: dog, plasma, 1 mg/kg IV, 3 mg/kg oral gavage
Source text: (§1) Methods for accessing oral bioavailability are well appreciated in the art. One such reference is Medicinal Research Reviews Vol 21 No. 5 382-396 (2001). The oral bioavailability of compounds of the present invention may be estimated essentially as follows.
(§2) Cohorts of three 250-400 gram male Sprague-Dawley rats or approximately 10 kg Beagle dogs (female or male) are used. […] Dogs are IV administered the compounds by cannulated cephalic vein and blood collections are by jugular vein. Animals are first IV dosed at 1 mg/kg and blood samples (0.1 to 0.2 mL) are then collected using EDTA as an anticoagulant at 0.0830, 0.25, 0.50, 1, 2, 4, 8, 12, and 24 h. After at least two days and overnight fasting, the animals are dosed at 3 mg/kg by oral gavage. Blood samples (0.1 to 0.2 mL) are then collected using EDTA as an anticoagulant at 0.25, 0.50, 1, 2, 4, 6, 8, 12, and 24 h. During the course of a study the total of blood (mL) collected is not to exceed 1% of total body weight in grams.
(§3) Compound plasma concentrations are measured by LC/MS/MS assays. Data are then analyzed using standard non-compartmental pharmacokinetic analysis. Oral bioavailability is calculated as: (AUC0-inifinity, oral/AUC0-inifinity, IV)×(Dose, IV./Dose, oral)×100%

plasma glucose = assay: Mouse Oral Glucose Tolerance Test (OGTT); assay type: in vivo, C57BL/6 mice
Description: Normal C57BL/6 mice are fasted overnight, randomized into groups (n=6) and orally dosed with vehicle (1% HEC, 0.25% tween 80, 0.05% antifoam) or 0.9, 2, 6 and 18 mg/kg GPR119 agonist suspended in vehicle. 30 minutes after the compound is administered, mice are dosed orally with a 50% dextrose solution at 3 g/kg. At various times (0, 20, 40, or 60 minutes post glucose), the mice are restrained in cotton gloves or paper towels and 1 mm or less of the tail is cut. A small drop of blood is placed onto Accu-Chek® glucometers (Roche model 22-044217) for glucose measurements. Three glucometers are used to read glucose in each collected sample, with the median value being reported as the final glucose value. Area under the plasma glucose curve (glucose AUC) is calculated for each group and the percentage decrease in the glucose AUC versus the control group is used as a measure of efficacy of the compound to decrease plasma glucose.

[2] = system: Diet-Induced Obese (DIO) mice; assay: Chronic treatment of Diet-Induced Obese (DIO) mice; assay type: in vivo, C57/BL6 mice; details: 30 mg/kg once daily, 3 weeks
Description: DIO male C57/BL6 mice are maintained on a calorie-rich diet and have free access to food and water for at least 2 weeks before randomization into groups by weight (n=8) and treatment. Animals are individually housed in a temperature-controlled (24° C.) facility with 12 hour light, 12 hour dark cycle. Body weights range from 34-40 g. Mice are administrated once daily vehicle (1% HEC), 30 mg/kg GPR119 agonist, 30 mg/kg DPPIV inhibitor or a combination of 30 mg/kg GPR119 agonist and 30 mg/kg DPPIV inhibitor. Treatment continues for 3 weeks. Food and body weights are recorded daily before dark photoperiod. Cumulative body weight change is calculated as the daily body weight minus body weight before treatment for each animal and presented as an average for the group. Food intake is measured daily for each animal and combined with the total amount of food consumed by that animal from all previous days to yield cumulative food intake, which is then averaged for the group. At the end of the study OGTT is performed after overnight fasting.

[3] = Oral bioavailability in Sprague-Dawley rats; assay type: in vivo; details: male, rat, plasma, 1 mg/kg IV, 3 mg/kg oral gavage
Source text: as §1, §2, §3

[4] = oral dosing 30 min before 3 g/kg dextrose, normal C57BL/6 mice

SMILES: CC(Oc1ccc(C2=CCN(S(C)(=O)=O)CC2)cc1)C1CCN(CC(C)(C)F)CC1 (single isomer, unassigned) [Example 8, 4-(4-{1-[1-(2-Fluoro-2-methyl-propyl)-piperidin-4-yl]-ethoxy}-phenyl)-1-methanesulfonyl-1,2,3,6-tetrahydro-pyridine]
EC50 (human GPR119): 1.1 nM

SMILES: CC(C)(CN1CCC(COc2ccc(C3=CCN(S(C)(=O)=O)CC3)nc2)CC1)C(F)(F)F [Example 3, 1′-Methanesulfonyl-5-[1-(3,3,3-trifluoro-2,2-dimethyl-propyl)-piperidin-4-ylmethoxy]-1′,2′,3′,6′-tetrahydro-[2,4′]bipyridinyl]
increase in GIP AUC over vehicle (total GIP; 10 mg/kg oral dose): 762 pg·h/mL

SMILES: CC(C)(F)CN1CCC(COc2ccc(C3=CCN(S(C)(=O)=O)CC3)nc2)CC1 [Example 6, 5-[1-(2-Fluoro-2-methyl-propyl)-piperidin-4-ylmethoxy]-1′-methanesulfonyl-1′,2′,3′,6′-tetrahydro-[2,4′]bipyridinyl]
EC50 (human GPR119): 0.95 nM
EC50 (GLUTag cells): 62.7 nM
bioavailability [1]: 90%
increase in GIP AUC over vehicle (total GIP; 1.6 mg/kg oral dose): 422 pg·h/mL
ED50 (plasma glucose; Mus musculus, oral, doses 0.9, 2, 6 and 18 mg/kg, normal C57BL/6 mice, read-out: ED50 (dose which produces a 50% decrease in glucose area under the curve)): 0.4 mg/kg
glucose tolerance (plasma glucose; [4]): improved glucose tolerance
postprandial plasma glucose (plasma glucose; [4]): significantly decreased
fasting plasma glucose (plasma glucose; oral dosing, normal C57BL/6 mice fasted overnight): did not influence
body weight [2]: mild decrease
food intake [2]: mild decrease
plasma glucose levels ([2]; OGTT at end of study): did not significantly modify

SMILES: CC(C)(F)CN1CCC(COc2ccc(C3=CCN(S(C)(=O)=O)CC3)cc2F)CC1 [Example 7, 4-{3-Fluoro-4-[1-(2-fluoro-2-methyl-propyl)-piperidin-4-ylmethoxy]-phenyl}-1-methanesulfonyl-1,2,3,6-tetrahydro-pyridine]
EC50 (human GPR119): 2.13 nM

SMILES: N[C@@H](CC(=O)N1CCn2c(nnc2C(F)(F)F)C1)Cc1cc(F)c(F)cc1F [Sitagliptin, sitagliptin, reference compound]
body weight [2]: did not alter
food intake [2]: did not alter

Further lines, with some results ahead:

EC50 (human GPR119): 4.61 nM
SMILES: CS(=O)(=O)N1CC=C(c2ccc(OCC3CCN(CC4(F)CCCC4)CC3)cc2)CC1 [Example 1, 4-{4-[1-(1-Fluoro-cyclopentylmethyl)-piperidin-4-ylmethoxy]-phenyl}-1-methanesulfonyl-1,2,3,6-tetrahydro-pyridine]

EC50 (GLUTag cells): 36.8 nM
SMILES: CC(F)(F)CN1CCC(COc2ccc(C3=CCN(S(C)(=O)=O)CC3)cc2)CC1 [Example 9, 4-{4-[1-(2,2-Difluoro-propyl)-piperidin-4-ylmethoxy]-phenyl}-1-methanesulfonyl-1,2,3,6-tetrahydro-pyridine]

EC50 (human GPR119): 0.95 nM
bioavailability [3]: 53%
SMILES: CS(=O)(=O)N1CC=C(c2ccc(OCC3CCN(CC4(C(F)(F)F)CC4)CC3)cc2)CC1 [Example 10, 1-Methanesulfonyl-4-{4-[1-(1-trifluoromethyl-cyclopropylmethyl)-piperidin-4-ylmethoxy]-phenyl}-1,2,3,6-tetrahydro-pyridine]
increase in GIP AUC over vehicle (total GIP; 10 mg/kg oral dose): 762 pg·h/mL
